Measurements taken from patent US12171232B1, “N-[(4,6-dimethylpyrimidin-2-yl)carbamothioyl] pyridine-3-carboxamide as an eco-friendly insecticidal agent against Spodoptera littoralis (boisd.)” (KING FAISAL UNIVERSITY, priority 2023, dated 2024).
Values after ≈ are worked out from the molar mass of the structure shown. Like-named read-outs stand apart in the source and are kept apart here.

Test system: Spodoptera littoralis
Test: Insecticidal bioassay screening (castor leaf dip) on larvae of the laboratory strain of cotton leafworm
Assay type: in vivo
Settings: for Toxicity index %: 72 hrs, Diflubenzuron's LC50 / compound's LC50 x 100; for LC90 (mg/L) at 95%: laboratory strain, after 72 hrs of treatment; for LC50: Spodoptera littoralis, foliar
Protocol: Five concentrations (200, 100, 50, 25, 12.5 ppm) were designed for this synthetic compound and the reference Diflubenzuron compound as the dynamic ingredients based on ppm via diluting the commercial formulation.
In this experiment, castor leaves are immersed in each of the previously prepared concentrations of the components for 10 seconds and then left to dry for 60 minutes. Larvae of the second and fourth instars of each checked strain are prepared with treated leaves in gauze-covered glass containers for 72 hrs. An untreated control is made in which leaves are dipped in triton x-100 and distilled water only. Then the preserved leaves were removed & fresh, untreated leaves were provided for 72 hours. Three replicates (10 larvae each) were checked for each concentration. Daily inspection was carried out for all treatments and mortality percentages were recorded 3 days (72 hours) after treatment. The average mortality percentage was corrected employing Abbott's formula. The corrected mortality rate for each of the previously synthesized compounds is statistically calculated according to Finney (1970). Through this rate, the corresponding concentration test lines (LDP lines) are assessed.

[1] = 72 h, read-out: LC50 (mg/L) at 95%, 2nd instar larvae, laboratory strain, after 72 hrs of treatment
[2] = 72 h, read-out: LC50 (mg/L) at 95%, 4th instar larvae, laboratory strain, after 72 hrs of treatment

Row | Compound | Toxicity index % (2nd instar larvae) [%] | LC90 (mg/L) at 95% (2nd instar larvae) [mg/L] | Toxicity index % (4th instar larvae) [%] | LC90 (mg/L) at 95% (4th instar larvae) [mg/L] | LC50 [1] [mg/L] | LC50 [2] [mg/L] | activity against Spodoptera littoralis (result in words, from Table 1 and FIGS. 2A-2B, 72 h) | LC50 (against Spodoptera littoralis under laboratory conditions, instar not stated) [mg/L]
1 | Cc1cc(C)nc(NC(=S)NC(=O)c2cccnc2)n1 [Compound 2, N-[(4,6-Dimethylpyrimidin-2-yl)carbamothioyl]pyridine-3-carboxamide] | 31.8 | 2112.3 (≈ 7350 µM) | 44.9 | 5732.3 (≈ 19900 µM) | ~142 (≈ 495 µM) | ~321 (≈ 1120 µM) | active | –
2 | O=C(NC(=O)c1c(F)cccc1F)Nc1ccc(Cl)cc1 [Diflubenzuron] | 100 | 520.0 (≈ 1670 µM) | 100 | 1540.5 (≈ 4960 µM) | 45.2 (≈ 145 µM) | 144 (≈ 464 µM) | – | 45.2 (≈ 145 µM)
